Earlier results as cited in patent US12213954B2, “Colchicine solution” (PHARMA-DATA RESEARCH AND D[…] MEMBER S.A., priority 2021, dated 2025).

Settings: pure colchicine

COc1cc2c(c(OC)c1OC)-c1ccc(OC)c(=O)cc1[C@@H](NC(C)=O)CC2 [colchicine, (S)—N-(5,6,7,9-tetrahydro-1,2,3,10-tetramethoxy-9-oxo-benzo[a]heptalene-7-yl)acetamide]
solubility in water, ethanol and chloroform (in words): well soluble
